Values after ≈ are worked out from the molar mass of the structure shown.
What was measured:
Chinook salmon = assay: Laboratory fish toxicity test (Table 1); type: in vivo, Oncorhynchus tschawytscha; conditions: tech, 12 C, soft water
Description: (§1) Fish were obtained from state and federal hatcheries and maintained prior to testing by a trained fish culturist. Fish of total length 2-5 cm were used in laboratory tests while for outdoor tests small fish (4-6 cm in length) and larger carp and buffalo (Ictiobus cyprinellus) were used.
(§2) In all tests 10 fish of each were exposed to selective concentrations of the toxicant. Mortalities were observed and recorded at 1,2 and 6 hours on the first day and once daily thereafter, during 96 hour exposure.
(§3) Laboratory tests were also conducted in soft water 12° C. wherein the toxicant was evaluated against fifteen species of fish including both cold and warm water varieties. In Table 1, the LC 50 toxicity values for N-(2-hydroxyethyl) digeranylamine is shown for various species. LC50 is defined as the amount (mg/liter) of toxicant required to kill 50 percent of the particular fish species at 95% confidence interval.

Lake trout = assay: Laboratory fish toxicity test (Table 1); type: in vivo, Salvelinus namaycush; conditions: tech, 12 C, soft water
Description: as §1, §2, §3

Goldfish [1] = assay: Laboratory fish toxicity test (Table 1); type: in vivo, Carassius auratus; conditions: tech, 12 C, soft water
Description: as §1, §2, §3

Carp = assay: Laboratory fish toxicity test (Table 1); type: in vivo, Cyprinus carpio; conditions: tech, 12 C, soft water
Description: as §1, §2, §3

White sucker = assay: Laboratory fish toxicity test (Table 1); type: in vivo, Catostomus commersoni; conditions: tech, 12 C, soft water
Description: as §1, §2, §3

Banded killifish = assay: Laboratory fish toxicity test (Table 1); type: in vivo, Fundulus diaphanus; conditions: tech, 12 C, soft water
Description: as §1, §2, §3

Largermouth bass = assay: Laboratory fish toxicity test (Table 1); type: in vivo, Micropterus salmoides; conditions: tech, 12 C, soft water
Description: as §1, §2, §3

Asiade clam = assay: Static bioassay in invertebrates (Table 2); type: in vivo, Corbicula sp.; conditions: tech, 17 C, limed spring water 22-36 mg/l hardness
Description: The effect of the various toxicants on common invertebrate species was determined in a static test conducted 17° C. The invertebrates tested were collected from natural populations or purchased from commercial suppliers. They were held in soft water in fiberglass tanks in the laboratory or in outdoor plastic swimming pools. Mortality was observed during holding, and only healthy organisms were used for the toxicity tests. At least 10 organisms of nine species were exposed to each concentration in static tests.

Goldfish [2] = assay: Outdoor plastic pool test (Table 3); type: in vivo, Carassius auratus; conditions: for % kill: 96 hour, 50% formulation (hydrochloride salt)
Description: (§4) N-(2-hydroxyethyl) digeranylamine was tested as a selective fish toxicant in outdoor pools stocked with various fish species and lined with black plastic using 50% water soluble formulations (hydrochloride salt). The formulation was added to each of four pools of 4,000-liter capacity at concentrations of 0.10, 0.15, 0.20, and 0.30 mg/liter. Another pool containing the same number, size, and species of fish served as a control. The test water had algal blooms, a pH of about 8.5, and a total hardness of about 200 mg/liter as CaCo3. The temperature was cool enough (15°-16°C.) to permit the use of trout.
as §1, §2
(§5) Outdoor pool tests were conducted using 50% formulation of the toxicant N-(2-hydroxyethyl) digeranylamine as indicated in Example 8. […] If selective control of white sucker and common carp is desired in an environment which includes rainbow trout, one should employ an effective concentration of toxicant which is at least as great as 0.05 mg/liter but less than 0.1 mg/liter. As a practical fishery practice in the northern United States and Canada, rainbow trout are not usually stocked in bodies of water containing the common carp species; the habitat conditions including water temperature and available oxygen of these species are usually quite different. Common carp and rainbow trout have quite different oxygen and temperature requirements and these differences generally preclude both species cohabitating under natural conditions. In this case the useful range to control common carp and white sucker can be much broader, i.e. 0.1 to 0.3 mg/liter.

Channel catfish = assay: Outdoor plastic pool test (Table 3); type: in vivo, Ictalurus punctatus; conditions: for % kill: 96 hour, 50% formulation (hydrochloride salt)
Description: as §4, §1, §2, §5

Green sunfish = assay: Outdoor plastic pool test (Table 3); type: in vivo, Lepomis cyanellus; conditions: for % kill: 96 hour, 50% formulation (hydrochloride salt)
Description: as §4, §1, §2, §5

Largemouth bass = assay: Outdoor plastic pool test (Table 3); type: in vivo, Micropterus salmoides; conditions: for % kill: 96 hour, 50% formulation (hydrochloride salt)
Description: as §4, §1, §2, §5

Yellow perch = assay: Outdoor plastic pool test (Table 3); type: in vivo, Perca flavescens; conditions: for % kill: 96 hour, 50% formulation (hydrochloride salt)
Description: as §4, §1, §2, §5

bluegill = assay: Toxicity to bluegill in waters of different hardness; type: in vivo, bluegill (Lepomis macrochirus)
Description: The selective toxicant, N-(2-hydroxyethyl)digeranylamine was evaluated against bluegill in waters of hardness of 12, 44, 170, and 300 p.p.m., total hardness as CaCo3. […] In contrast the specific aminoalkanols of this invention are selective to carp (Caprinus carpio) and effective in waters of high pH.

CC(C)=CCC/C(C)=C/CN(C/C=C(\C)CCC=C(C)C)CCO [N-(2-hydroxyethyl) digeranylamine]
LC50 (Chinook salmon; 3 hours): 0.300 µg/mL (≈ 0.899 µM) | LC50 (Chinook salmon; 6 hours): 0.210 µg/mL (≈ 0.63 µM) | LC50 (Chinook salmon; 24 hours): 0.167 µg/mL (≈ 0.501 µM) | LC50 (Chinook salmon; 96 hours): 0.129 µg/mL (≈ 0.387 µM) | LC50 (Lake trout; 3 hours): 0.109 µg/mL (≈ 0.327 µM) | LC50 (Lake trout; 6 hours): 0.0700 µg/mL (≈ 0.21 µM) | LC50 (Lake trout; 24 hours): 0.0470 µg/mL (≈ 0.141 µM) | LC50 (Lake trout; 96 hours): 0.0570 µg/mL (≈ 0.171 µM) | LC50 (Goldfish [1]; 24 hours): 0.961 µg/mL (≈ 2.88 µM) | LC50 (Goldfish [1]; 96 hours): 0.290 µg/mL (≈ 0.869 µM) | LC50 (Carp; 6 hours): 1.34 µg/mL (≈ 4.02 µM) | LC50 (Carp; 24 hours): 0.0718 µg/mL (≈ 0.215 µM) | LC50 (Carp; 96 hours, 5760 min): 0.050 µg/mL (≈ 0.15 µM) | LC50 (Carp; 96 hours, listed as N-(2-hydroxyethyl) Digeranylamine, 5760 min): 0.0507 µg/mL (≈ 0.152 µM) | LC50 (White sucker; 3 hours): 0.540 µg/mL (≈ 1.62 µM) | LC50 (White sucker; 6 hours): 0.136 µg/mL (≈ 0.408 µM) | LC50 (White sucker; 24 hours): 0.0690 µg/mL (≈ 0.207 µM) | LC50 (Banded killifish; 3 hours): 7.20 µg/mL (≈ 21.6 µM) | LC50 (Banded killifish; 6 hours): 2.77 µg/mL (≈ 8.3 µM) | LC50 (Banded killifish; 24 hours): 1.32 µg/mL (≈ 3.96 µM) | LC50 (Banded killifish; 96 hours): 0.792 µg/mL (≈ 2.37 µM) | LC50 (Largermouth bass; 3 hours): 1.40 µg/mL (≈ 4.2 µM) | LC50 (Largermouth bass; 6 hours): 0.530 µg/mL (≈ 1.59 µM) | LC50 (Largermouth bass; 24 hours): 0.380 µg/mL (≈ 1.14 µM) | LC50 (Largermouth bass; 96 hours): 0.360 µg/mL (≈ 1.08 µM) | LC50 (Asiade clam; 28 hours): 56.0 µg/mL (≈ 168 µM) | LC50 (Asiade clam; 96 hours): 9.60 µg/mL (≈ 28.8 µM) | % kill (Goldfish [2]; 0.10 mg/l): 0% | % kill (Goldfish [2]; 0.15 mg/l): 0% | % kill (Goldfish [2]; 0.20 mg/l): 0% | % kill (Goldfish [2]; 0.30 mg/l): 0% | survival (in words) (Goldfish [2]; goldfish, 0.3 mg/liter, 50% formulation): complete survival | % kill (Channel catfish; 0.10 mg/l): 0% | % kill (Channel catfish; 0.15 mg/l): 0% | % kill (Channel catfish; 0.20 mg/l): 0% | % kill (Channel catfish; 0.30 mg/l): 40% | survival (in words) (Channel catfish; channel catfish, 0.30 mg/liter and lower, 50% formulation): died at 0.30 mg/liter of toxicant, but all survived lower concentrations | % kill (Green sunfish; 0.10 mg/l): 0% | % kill (Green sunfish; 0.15 mg/l): 0% | % kill (Green sunfish; 0.20 mg/l): 0% | % kill (Green sunfish; 0.30 mg/l): 0% | survival (in words) (Green sunfish; green sunfish, 0.3 mg/liter, 50% formulation): complete survival | % kill (Largemouth bass; 0.10 mg/l): 0% | % kill (Largemouth bass; 0.15 mg/l): 0% | % kill (Largemouth bass; 0.20 mg/l): 0% | % kill (Largemouth bass; 0.30 mg/l): 0% | survival (in words) (Largemouth bass; largemouth bass, 0.3 mg/liter, 50% formulation): complete survival | % kill (Yellow perch; 0.10 mg/l): 0% | % kill (Yellow perch; 0.15 mg/l): 30% | % kill (Yellow perch; 0.20 mg/l): 0% | % kill (Yellow perch; 0.30 mg/l): 50% | survival (in words) (Yellow perch; yellow perch, 0.30 mg/liter and lower, 50% formulation): died at 0.30 mg/liter of toxicant, but all survived lower concentrations | 96-hour LC50 (bluegill; total hardness 12 p.p.m. as CaCo3): 0.84 µg/mL | 96-hour LC50 (bluegill; total hardness 44 p.p.m. as CaCo3): 0.72 µg/mL | 96-hour LC50 (bluegill; total hardness 170 p.p.m. as CaCo3): 0.46 µg/mL | 96-hour LC50 (bluegill; total hardness 300 p.p.m. as CaCo3): 0.33 µg/mL
